How the values were obtained:
[1] = Inhibition of porcine brain CK1 delta/epsilon using CK-S as substrate incubated for 30 mins in presence of [gamma-33 ATP] by liquid scintillation counting analysis; set-up: species or system Sus scrofa
[2] = target: Dual specificity tyrosine-phosphorylation-regulated kinase 1A (Rattus norvegicus, UniProt Q63470); experiment: Inhibition of GST-tagged rat recombinant DYRK1A expressed in Escherichia coli using myelin basic protein as substrate incubated for 30 mins in presence of [gamma-33 ATP] by liquid scintillation counting analysis
[3] = target: Dual specificity protein kinase CLK1 (Homo sapiens, UniProt P49759); experiment: Inhibition of GST-tagged human recombinant CLK1 expressed in Escherichia coli using RS peptide as substrate
[4] = target: Cyclin-dependent kinase 5/CDK5 activator 1 (Homo sapiens, UniProt Q00535); experiment: Inhibition of GST-tagged human recombinant CDK5/p25 expressed in Escherichia coli using histone H1 as substrate incubated for 30 mins in presence of [gamma-33 ATP] by liquid scintillation counting analysis
[5] = target: Glycogen synthase kinase-3 (Sus scrofa, UniProt B2LUN4+I6LNT8); experiment: Inhibition of porcine brain GSK3alpha/beta using GS-1 as substrate incubated for 10 mins in presence of [gamma-32 ATP] by liquid scintillation counting analysis

Sequence of Cyclin-dependent kinase 5/CDK5 activator 1 (Q00535 whole entry): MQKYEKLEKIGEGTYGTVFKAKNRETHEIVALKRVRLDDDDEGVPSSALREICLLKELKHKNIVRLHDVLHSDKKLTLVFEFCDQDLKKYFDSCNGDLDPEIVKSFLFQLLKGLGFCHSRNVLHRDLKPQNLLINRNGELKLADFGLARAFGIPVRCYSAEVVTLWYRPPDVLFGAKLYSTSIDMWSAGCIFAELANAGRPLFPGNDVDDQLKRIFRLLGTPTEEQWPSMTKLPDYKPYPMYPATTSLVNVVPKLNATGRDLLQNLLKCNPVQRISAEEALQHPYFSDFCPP
Sequence of Cyclin-dependent kinase 5/CDK5 activator 1 (Q15078 whole entry, further chain): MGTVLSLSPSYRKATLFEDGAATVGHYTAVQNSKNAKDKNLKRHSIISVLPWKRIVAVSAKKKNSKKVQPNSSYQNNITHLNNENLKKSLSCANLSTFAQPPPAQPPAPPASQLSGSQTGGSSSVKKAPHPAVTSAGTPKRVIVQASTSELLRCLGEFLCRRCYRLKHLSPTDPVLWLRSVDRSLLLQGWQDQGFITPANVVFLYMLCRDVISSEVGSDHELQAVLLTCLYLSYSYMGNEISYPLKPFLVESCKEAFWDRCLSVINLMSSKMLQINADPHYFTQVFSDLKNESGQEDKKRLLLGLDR
Sequence of Dual specificity protein kinase CLK1 (P49759 whole entry): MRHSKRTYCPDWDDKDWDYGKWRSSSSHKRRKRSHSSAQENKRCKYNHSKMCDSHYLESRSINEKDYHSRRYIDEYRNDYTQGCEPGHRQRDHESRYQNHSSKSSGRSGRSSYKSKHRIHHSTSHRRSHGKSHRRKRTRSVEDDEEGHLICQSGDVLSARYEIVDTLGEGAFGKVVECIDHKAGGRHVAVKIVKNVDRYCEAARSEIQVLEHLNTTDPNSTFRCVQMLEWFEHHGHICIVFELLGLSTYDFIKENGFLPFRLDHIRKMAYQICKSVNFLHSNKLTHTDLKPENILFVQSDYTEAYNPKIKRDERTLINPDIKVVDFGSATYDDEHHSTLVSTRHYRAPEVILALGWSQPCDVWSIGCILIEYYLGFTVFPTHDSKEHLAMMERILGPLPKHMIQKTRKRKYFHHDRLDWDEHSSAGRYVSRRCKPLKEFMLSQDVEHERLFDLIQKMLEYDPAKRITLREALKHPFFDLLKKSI

Row | IC50 [1] | IC50 [2] | IC50 [3] | IC50 [4] | IC50 [5] | SMILES
1 | 5800 nM | 28 nM | 41 nM | 4800 nM | 9100 nM | Nc1ncc2cc3cnccc3c(N)c2n1
2 | 800 nM | 180 nM | 190 nM | > 10000 nM | > 10000 nM | Nc1ncc2cc3cnccc3cc2n1
3 | 780 nM | 620 nM | 69 nM | > 10000 nM | 2200 nM | Nc1ncc2cc3cnccc3c([N+](=O)[O-])c2n1
